Reference: US20110008465A1, “SESQUITERPENE FORMULATIONS, KITS AND METHODS OF USE THEREOF” (priority 2007, published 2011)
Marks after values point to notes of the source that are not given here.

Assays:
[1] = test system: Panc 05.04 (pancreas cancer); test: Chou and Talalay combination assay with beta-caryophyllene; assay type: cell-based, Human; settings: in combination with beta-caryophyllene in ethanol (40-150 mM), 48 h
Protocol: Agent: […] Each solution was prepared fresh and use within 1 hour after preparation. 5 μL of each test article were added to 1 mL of culture medium for a final concentration of 0.5% of solvent and this concentration have no toxic effect on cells. Cells: The Panc 05.04 cell line was used. Cells were harvested using trypsine-EDTA. […] Cells were plated in 96-well microplates (BD Falcon) at a density of 7.5×10^3 cells per well for Chou and Talalay assay in 100 μL of culture medium and were allowed to adhere for 24 hours before treatment. Proliferation assay: Increasing concentrations of the anticancer agents and/or beta-caryophyllene were added to 96-well plate (100 μL per well). The final concentration of solvent in the culture medium was maintained below 0.5% (volume/volume) to avoid solvent toxicity. […] The cells were incubated for 48 h at 37° C. and 5% CO2. Cytotoxicity was assessed using the resazurin reduction test (8). […] Resazurin was then removed. Data analysis: Results were analyzed using the Chou and Talalay method (9) and may be interpreted as follow: […]

[2] = test system: Lewis lung carcinoma; test: In vivo potentiating effect of Formulation A on paclitaxel against Lewis lung cancer-bearing mice; settings: for CTW (estimated weight) / T/C (estimated weight) / T/C (real weight) / TGI (estimated weight) / TGI (real weight) / Tumor weight (real weight): i.v. day 1 to 4, day 18
Protocol: (§1) Cells: The Lewis lung carcinoma cell line was used (#CRL-1642, lot #4372266, ATCC). […] Cells were then harvested with up and down only. Cells were counted using a hemacytometer and resuspended in DMEM medium without SVF.
Mice: 6-weeks old C57BL/6 male mice were used Charles Rivers Inc., St-Constant, QC). […] The mice of each group (n=10) were treated with a volume of 100 μL containing saline, Formulation A (see Example 5), paclitaxel or combination of the Formulation A with paclitaxel.
(§2) Inoculation: 100 μL of a solution containing 1×10^7 cells/mL were inoculated subcutaneously in each mouse.
Treatment: Lewis lung carcinoma cells were inoculated subcutaneous on C57BL/6 mice on day 0. The potentiating effect of the Formulation A combined with paclitaxel was evaluated against Lewis lung carcinoma-bearing mice (C57BL/6). The mice of each group (n=10) were treated with a volume of 100 μL containing saline, Formulation A, paclitaxel or a combination of Formulation A with paclitaxel in doses presented in Table 10 below: The treatments were administered intravenous on day 1 to 4. The length and the width of tumor were measured with calliper on day 8 to day 18. In the end of the experiment (day 18), the tumors were extracted and weighed.
Values of p<0.05 were considered statistically significant.
(b) Tumor weight (TW): The TW of each tumor was measured on day 18 after the sacrifice of each mouse. TW values were averaged within each group. […] Values of p<0.05 were considered statistically significant.

[3] = test system: A-549 (lung cancer); test: Chou and Talalay combination assay with beta-caryophyllene; assay type: cell-based, human; settings: anticancer drug in combination with beta-caryophyllene; Chou and Talalay CI; 48 h
Method in brief: (§3)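 Harvest cells with trypsin-EDTA and resuspend in DMEM + 10% FBS. Add increasing drug and/or beta-caryophyllene concentrations, keeping solvent under 0.5% (v/v), and incubate 48 h at 37° C. Measure resazurin reduction, then SDS freeze–thaw lysis with a 360/460 nm fluorescence read.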

[4] = test system: DLD-1 (colon cancer); test: as above; assay type: cell-based, human; settings: anticancer drug in combination with beta-caryophyllene; Chou and Talalay CI; 48 h
Method in brief: as §3

[5] = test system: MCF-7 (breast cancer); test: as above; assay type: cell-based, human; settings: anticancer drug in combination with beta-caryophyllene; Chou and Talalay CI; 48 h
Method in brief: as §3

[6] = test system: MDA-MB-231 (breast cancer); test: as above; assay type: cell-based, human; settings: anticancer drug in combination with beta-caryophyllene; Chou and Talalay CI; 48 h
Method in brief: as §3

[7] = test system: PA-1 (ovary cancer); test: as above; assay type: cell-based, human; settings: anticancer drug in combination with beta-caryophyllene; Chou and Talalay CI; 48 h
Method in brief: as §3

[8] = test system: B16 (murine melanoma); test: as above; assay type: cell-based; settings: anticancer drug in combination with beta-caryophyllene; Chou and Talalay CI; 48 h
Method in brief: as §3

[9] = test system: GL-261 (murine glioblastoma); test: as above; assay type: cell-based; settings: anticancer drug in combination with beta-caryophyllene; Chou and Talalay CI; 48 h
Method in brief: as §3

[10] = test system: MEL-2 (human melanoma); test: as above; assay type: cell-based; settings: anticancer drug in combination with beta-caryophyllene; Chou and Talalay CI; 48 h
Method in brief: as §3

[11] = test system: U-251 (human glioblastoma); test: as above; assay type: cell-based; settings: anticancer drug in combination with beta-caryophyllene; Chou and Talalay CI; 48 h
Method in brief: as §3

[12] = test system: Lewis lung carcinoma; test: In vivo potentiating effect of Formulation A on Taxotere against Lewis lung cancer-bearing mice; settings: i.v. days 1-4, day 18
Protocol: as §1
Mice: 6-weeks old C57BL/6 male mice were used (Charles Rivers Inc., St-Constant, QC).
as §2
The mice of each group (n=10) were treated with a volume of 100 μL containing saline, Formulation A of Example 5 above (hereinafter referred to as Formulation A), Taxotere™ or a combination of Formulation A with Taxotere™ in doses presented in Table 7 below: […]
Values of p<0.05 were considered statistically significant. The length and the width of tumor were measured with calliper on day 10 to day 18.

[13] = Toxicity of Formulation A and/or Taxotere treatments (body weight) on Lewis lung cancer-bearing mice; settings: for Loss of weight > 20% (n = 10): day 1 to day 8
Protocol: The toxicity of the treatments described in Table 7 above was determined using the body weight of mice.

## CC[C@@]1(O)C(=O)OCc2c1cc1n(c2=O)Cc2cc3ccccc3nc2-1 [Camptothecin, camptothecin]
[1]
  Potentiating activity Panc 05.04: Potentiating > IC60

## CCc1c2c(nc3ccc(OC(=O)N4CCC(N5CCCCC5)CC4)cc13)-c1cc3c(c(=O)n1C2)COC(=O)[C@]3(O)CC [Irinotecan]
[1]
  Potentiating activity Panc 05.04: Potentiating > IC50

## CC(=O)O[C@H]1C(=O)[C@@]2(C)[C@H]([C@H](OC(=O)c3ccccc3)[C@]3(O)C[C@H](OC(=O)[C@H](O)[C@@H](NC(=O)c4ccccc4)c4ccccc4)C(C)=C1C3(C)C)[C@]1(OC(C)=O)CO[C@@H]1C[C@@H]2O [Paclitaxel, paclitaxel]
[2]; paclitaxel 10 mg/kg
  CTW (estimated weight): 568 ± 155 mg
  T/C (estimated weight): 81%
  T/C (real weight): 87%
  TGI (estimated weight): 19%
  TGI (real weight): 13%
  Tumor weight (real weight): 410 ± 90 mg
[2]; paclitaxel 20 mg/kg
  CTW (estimated weight): 510 ± 274 mg
  T/C (estimated weight): 73%
  T/C (real weight): 91%
  TGI (estimated weight): 27%
  TGI (real weight): 9%
  Tumor weight (real weight): 420 ± 350 mg
[2]; paclitaxel 30 mg/kg
  CTW (estimated weight): 446 ± 118^c,d mg
  T/C (estimated weight): 64%
  T/C (real weight): 81%
  TGI (real weight): 19%
  Tumor weight (real weight): 380 ± 200 mg
[2]; paclitaxel 10 and 20 mg/kg alone
  effect on tumor growth (in words): do not inhibit significantly tumor growth
[3]
  Potentiating activity A-549: (3) (Moderate: 0.5 < CI < 0.8 at IC50)
[4]
  Potentiating activity DLD-1: (2) (High: CI below 0.5 at IC50)
[5]
  Potentiating activity MCF-7: (1) (Very High: CI equal or below 1 at IC20 and Cl below 0.6 to IC50)
[6]
  Potentiating activity MDA: (3) (Moderate: 0.5 < CI < 0.8 at IC50)
[7]
  Potentiating activity PA-1: (2) (High: CI < 0.5 to IC50)
[8]
  Potentiating activity B16: (1) (Very High: potentiating or additive activity to IC20 and CI < 0.6 to IC50)
[9]
  Potentiating activity GL-261: (2) (High: CI < 0.5 to IC50)
[10]
  Potentiating activity MEL-2: (3) (Moderate: 0.5 < CI < 0.8 to IC50)
[11]
  Potentiating activity U-251: (1) (Very High: potentiating or additive activity to IC20 and CI < 0.6 to IC50)
[1]
  Potentiating activity Panc 05.04: Potentiating > IC80

## CC(=O)O[C@@]12CO[C@@H]1C[C@H](O)[C@@]1(C)C(=O)[C@H](O)C3=C(C)[C@@H](OC(=O)[C@H](O)[C@@H](NC(=O)OC(C)(C)C)c4ccccc4)C[C@@](O)([C@@H](OC(=O)c4ccccc4)[C@H]21)C3(C)C [Taxotere ™, docetaxel]
[12]; Taxotere 5 mg/kg
  CTW: 380 ± 116 mg
  T/C: 89%
  TGI: 11%
[12]; Taxotere 5 mg/kg, listed as Taxotere™
  TGI: about 11%
[12]; Taxotere 10 mg/kg
  CTW: 346 ± 107 mg
  T/C: 81%
  TGI: 19%
[12]; Taxotere 15 mg/kg
  CTW: 178 ± 112^c mg
  T/C: 42%
  TGI: 58%
[12]; Taxotere 15 mg/kg, listed as Taxotere™
  TGI: about 58%
[1]
  Potentiating activity Panc 05.04: Potentiating > IC10
[13]; Taxotere 5 mg/kg
  loss of weight (day 7) with regard to the initial weight (day 1): about 0.55%
  Loss of weight > 20% (n = 10): 0
[13]; Taxotere 10 mg/kg
  loss of weight (day 7) with regard to the initial weight (day 1): ~3.33%
  Loss of weight > 20% (n = 10): 0
[13]; Taxotere 15 mg/kg
  loss of weight (day 7) with regard to the initial weight (day 1): about 13%
  Loss of weight > 20% (n = 10): 7
